Values of other authors, collected in patent US10984362B2, “Methods for post-harvest crop pest management” (priority 2017, dated 2021).
Read-outs that look alike come from different tables or passages of the source.

Legend:
[1] = test system: tobacco moth and susceptible cigarette beetle; settings: 100% control of all development stages
[2] = test system: resistant cigarette beetle; settings: 100% control of all development stages
[3] = tobacco temperature 16-20 °C (61-68 °F), 300 ppm phosphine at the bale/case centre

## P [Phosphine, phosphine]
[1]; [3]
  Minimum Exposure Time: 6 days
[1]; tobacco temperature >20 °C (>68 °F), 200 ppm phosphine at the bale/case centre
  Minimum Exposure Time: 4 days
[2]; [3]
  Minimum Exposure Time: 12 days
[2]; tobacco temperature 20-25 °C (68-77 °F), 300 ppm phosphine at the bale/case centre
  Minimum Exposure Time: 12 days
[2]; tobacco temperature 20-25 °C (68-77 °F), 700 ppm phosphine at the bale/case centre
  Minimum Exposure Time: 10 days
[2]; tobacco temperature >25 °C (>77 °F), 300 ppm phosphine at the bale/case centre
  Minimum Exposure Time: 12 days
[2]; tobacco temperature >25 °C (>77 °F), 600 ppm phosphine at the bale/case centre
  Minimum Exposure Time: 6 days
